Assay results reported in PMC4320118, “Micheliolide Derivative DMAMCL Inhibits Glioma Cell Growth In Vitro and In Vivo” (PLoS ONE, 2015).
“And” between values parts separate entries of the source, which are not always exact repeats. Identical values can stand only once. “Also recorded” adds a separate entry of the source. Like-named read-outs stand apart in the source and are kept apart here.

What was measured:
U-87MG cells = assay: Cell proliferation MTT assay, U-87MG; format: cell-based; conditions: Homo sapiens, 72 h
Procedure: C6 and U-87MG cell lines were obtained from the American Type Culture Collection (ATCC) and cultured in our laboratory. Rat C6 glioma cells were cultured in F12K nutrient medium (Gibco, Grand Island, […]) supplemented with 15% horse serum (Auckland, NZ), 2.5% fetal bovine serum (FBS), 100 U/mL penicillin, and […] streptomycin (Gibco, Paisley, Scotland, UK). Human U-87MG cells were cultured in minimum essential medium (MEM) supplemented with 10% FBS, 1% nonessential amino acids, 100 U/mL penicillin, and […] streptomycin. Cells were cultured under a humidified atmosphere containing 5% CO2 at 37°C, and medium was changed every 1 to 2 days.
Tumor cells were seeded in 96-well plates at a density of 3500 cells/well. After 24 h in culture, cells were exposed to different concentrations of DMAMCL or medium alone (control) for 72 h. Cell viability was determined by MTT assays. Briefly, MTT regent (0.5 mg/mL) was added to wells, and cells were incubated for 4 h at 37°C. After removing the supernatant, 200 μL of dimethyl sulfoxide (DMSO) (Fluka, Switzerland) was added to dissolve formazan crystals. The absorbance at 570 nm was measured by a microplate reader (Thermo Labsystems, Helsinki, Finland). Control absorbance was taken as 100%. The absorbance of DMAMCL-treated cells was taken as percentage survival. […]

[1] = Locomotor activity (neurological effects); format: in vivo, Wistar rats
Procedure: Locomotor activity was used to assess neurological effects of DMAMCL. Wistar rats (150–170 g) were divided into the following 3 groups (10 rats /group): 1) vehicle control, 2) DMAMCL at 100 mg/kg, and 3) DMAMCL at 300 mg/kg. DMAMCL was administered orally once a day for 21 days. Rat locomotor activities were monitored on days 1, 10, 21 and 28 using Aninal Behavioral Analysis System (AniLab Software and Instruments Co, Ltd, China). Briefly, rats were gently placed in the locomotor activity boxes equipped with infrared photobeams and individual total distance (cm) of rat running was recorded during a test period of 60 min. The test apparatus was cleaned to eliminate odors for the next test after each animal was tested.

[2] = Toxicity of DMAMCL, oral once a day for 21 days; format: in vivo, Wistar rats; set-up: Cr: unit not given here; conditions: for ALB / ALP / ALT / AST / CHOL / CK / Cr / GLU / TG / TP / Urea: serum
Procedure: Wistar rats (150–170 g) were divided into the following 3 groups (6 rats /group): 1) vehicle control, 2) DMAMCL at 200 mg/kg, and 3) DMAMCL at 300 mg/kg. DMAMCL was administered orally once a day for 21 days. Rats were weighed on days 0, 3, 7, 11, 14, 17, and 21. Total food intake was measured as the weight of food consumed during a 24-h period on days 3, 8, 15, and 22. On the 23rd day, rats were anesthetized and sacrificed via CO2 asphyxiation. Peripheral blood was collected for hematological and serum biochemical analyses using a blood cell counter (Medonic M16, Boule medical AB, Sweden) and a Hitachi 7180 Automatic Analyzer (Japan). Tissues samples from the liver, spleen, lung, kidney, and brain were collected and embedded in paraffin for H&E staining.

intracerebral C6 glioma = assay: Survival time analysis in C6 intracerebral glioma rats; format: in vivo, Wistar rats; conditions: for Survival (# of rats) End: 63 days, n = 10; for Survival: at 63 days; for Mean survival / Median survival: observation 63 days
Procedure: C6 tumors were maintained as subcutaneous tumors in rats.
The survival time analyses were performed in C6 intracerebral glioma rats. […] Animals were monitored daily for signs of mortality and weight. Rats were sacrificed when a loss of mobility, lethargy, hemorrhaging around the eyes, or a hunched posture was observed as previously described. The observation time was terminated when all the vehicle rats died. Then the other rats were euthanized by CO2 asphyxiation.

[3] = 200 mg/kg orally once a day for 21 days
[4] = 300 mg/kg orally once a day for 21 days
[5] = DMAMCL 25 mg/kg daily for 21 days
[6] = DMAMCL 50 mg/kg daily for 21 days
[7] = DMAMCL 100 mg/kg daily for 21 days

Question: Which IC50 (U-87MG cells; read-out: IC50) does the source give for `CC1=C2CC[C@@](C)(O)[C@@H]2[C@H]2OC(=O)[C@@H](CN(C)C)[C@@H]2CC1` [DMAMCL, dimethylaminomicheliolide] here?
Answer: 20.6 ± 1.61 µM

Question: What about the IC50 (U-87MG cells; read-out: x0 (midpoint of logistic fit, Fig 3B) (converted)) of the same compound?
Answer: 20.6 ± 1.6 µM

Question: What about the Locomotor activity ([1]; 100mg/kg orally once a day for 21 days, observation period) of the same compound?
Answer: as active as vehicle group

Question: And the “Locomotor activity, total distance” value ([1]; 300mg/kg orally once a day, following days)?
Answer: still less active than vehicle group, but without significant statistical difference

Question: What about the “Locomotor activity, total distance” value ([1]; 300mg/kg orally, first day) of the same compound?
Answer: decreased compared with vehicle group

Question: What about the “Locomotor activity, total distance” value ([1]; 300mg/kg, within one week of DMAMCL withdrawal) of the same compound?
Answer: no significant changes were observed

Question: And the GRAN% [2, 3]?
Answer: 26.5 ± 3.3%

Question: And the HCT% [2, 3]?
Answer: 35.6 ± 1.2%

Question: And the HGB [2, 3]?
Answer: 145 ± 12.3 g/L

Question: And the LYM% [2, 3]?
Answer: 71.3 ± 6.3%

Question: What about the MCV [2, 3] of the same compound?
Answer: 55.5 ± 1.4 fL

Question: What about the MONO% [2, 3] of the same compound?
Answer: 2.1 ± 0.3%

Question: What about the PLT [2, 3] of the same compound?
Answer: 1195 ± 87 ×10^9/L

Question: What about the RBC [2, 3] of the same compound?
Answer: 6.73±1.3 ×10^12/L

Question: What about the RDW% [2, 3] of the same compound?
Answer: 18.5 ± 1.1%

Question: What about the WBC [2, 3] of the same compound?
Answer: 12.5 ± 2.5 ×10^9/L

Question: What about the GRAN% [2, 4] of the same compound?
Answer: 26.3 ± 4.1%

Question: What about the HCT% [2, 4] of the same compound?
Answer: 37.7 ± 0.8%

Question: And the HGB [2, 4]?
Answer: 140 ± 11.1 g/L

Question: What about the LYM% [2, 4] of the same compound?
Answer: 69.9 ± 6.0%

Question: What about the MCV [2, 4] of the same compound?
Answer: 53.5 ± 2.3 fL

Question: And the MONO% [2, 4]?
Answer: 2.9 ± 0.9%

Question: What about the PLT [2, 4] of the same compound?
Answer: 1132 ± 82 ×10^9/L

Question: What about the RBC [2, 4] of the same compound?
Answer: 6.37 ± 1.01 ×10^12/L

Question: And the RDW% [2, 4]?
Answer: 17.8 ± 0.7%

Question: And the WBC [2, 4]?
Answer: 11.9 ± 1.3 ×10^9/L

Question: And the “Toxicity (body weight, daily food intake, histopathology, hematology, serum biochemistry)” value ([2]; 200 or 300 mg/kg orally once a day for 21 days)?
Answer: did not result in toxicity; also recorded: No significant changes were observed; also recorded: did not lead to toxicity

Question: And the ALB [2, 3]?
Answer: 32.5 ± 3.01 g/L

Question: What about the ALP [2, 3] of the same compound?
Answer: 190 ± 19 U/L

Question: What about the ALT [2, 3] of the same compound?
Answer: 51 ± 10 U/L

Question: What about the AST [2, 3] of the same compound?
Answer: 98 ± 12 U/L

Question: What about the CHOL [2, 3] of the same compound?
Answer: 1.39 ± 0.67 mM

Question: And the CK [2, 3]?
Answer: 423 ± 35 U/L

Question: What about the Cr [2, 3] of the same compound?
Answer: 79 ± 23

Question: And the GLU [2, 3]?
Answer: 5.22 ± 2.01 mM

Question: And the TG [2, 3]?
Answer: 0.81 ± 0.23 mM

Question: What about the TP [2, 3] of the same compound?
Answer: 61.0 ± 4.6 g/L

Question: And the Urea [2, 3]?
Answer: 6.45 ± 2.3 mM

Question: And the ALB [2, 4]?
Answer: 34 ± 1.98 g/L

Question: And the ALP [2, 4]?
Answer: 179 ± 30 U/L

Question: And the ALT [2, 4]?
Answer: 49 ± 11 U/L

Question: What about the AST [2, 4] of the same compound?
Answer: 111 ± 15 U/L

Question: What about the CHOL [2, 4] of the same compound?
Answer: 1.42 ± 0.78 mM

Question: And the CK [2, 4]?
Answer: 523 ± 101 U/L

Question: And the Cr [2, 4]?
Answer: 80 ± 17

Question: And the GLU [2, 4]?
Answer: 5.23 ± 1.34 mM

Question: And the TG [2, 4]?
Answer: 0.69 ± 0.33 mM

Question: What about the TP [2, 4] of the same compound?
Answer: 58.3 ± 3.3 g/L

Question: And the Urea [2, 4]?
Answer: 7.33 ± 1.02 mM

Question: What about the “Median survival of deceased animals” value (intracerebral C6 glioma; [5]) of the same compound?
Answer: 28 days

Question: What about the “Time of death End” value (intracerebral C6 glioma; [5]) of the same compound?
Answer: 42 days

Question: And the “Time of death Start” value (intracerebral C6 glioma; [5])?
Answer: 20 days

Question: What about the “Survival (# of rats) End” value (intracerebral C6 glioma; [5]) of the same compound?
Answer: 7 # of rats

Question: And the Survival (intracerebral C6 glioma; [5])?
Answer: 70% and 70 ^** %

Question: What about the Mean survival (intracerebral C6 glioma; [5]) of the same compound?
Answer: 53.1 ± 16.8 days

Question: What about the Median survival (intracerebral C6 glioma; [5]) of the same compound?
Answer: 63 days

Question: And the “Median survival of deceased animals” value (intracerebral C6 glioma; [6])?
Answer: 25 days

Question: And the “Time of death End” value (intracerebral C6 glioma; [6])?
Answer: 25 days

Question: What about the “Time of death Start” value (intracerebral C6 glioma; [6]) of the same compound?
Answer: 25 days

Question: What about the “Survival (# of rats) End” value (intracerebral C6 glioma; [6]) of the same compound?
Answer: 9 # of rats

Question: And the Survival (intracerebral C6 glioma; [6])?
Answer: 90% and 90 ^*** %

Question: What about the Mean survival (intracerebral C6 glioma; [6]) of the same compound?
Answer: 59.2 ± 12 days

Question: And the Median survival (intracerebral C6 glioma; [6])?
Answer: 63 days

Question: What about the “Median survival of deceased animals” value (intracerebral C6 glioma; [7]) of the same compound?
Answer: 41 days

Question: And the “Time of death End” value (intracerebral C6 glioma; [7])?
Answer: 41 days

Question: What about the “Time of death Start” value (intracerebral C6 glioma; [7]) of the same compound?
Answer: 41 days

Question: What about the “Survival (# of rats) End” value (intracerebral C6 glioma; [7]) of the same compound?
Answer: 9 # of rats

Question: And the Survival (intracerebral C6 glioma; [7])?
Answer: 90% and 90 ^*** %

Question: And the Mean survival (intracerebral C6 glioma; [7])?
Answer: 60.8 ± 7 days

Question: What about the Median survival (intracerebral C6 glioma; [7]) of the same compound?
Answer: 63 days

Question: And the “Survival longer than vehicle animals” value (intracerebral C6 glioma; DMAMCL-treated rats)?
Answer: ~ 30 days
